Key:
[1] = test system: MOLM-13 cells; experiment: Cell death in MOLM-13 cell line, Compound 56-2 with BCL2 inhibitor venetoclax (CellTiter-Glo, 4 days); type: cell-based, human
Protocol: Test compound was dispensed using a Tecan compound dispenser into 384-well plates (Microplate 384-well, polypropylene, F-bottom; Greiner Bio-One, #781201) in a ten-by-ten response matrix to assess the combination effects of Menin inhibition (Compound 56-2) together with BCL-2 inhibition (venetoclax) at the following concentrations after subsequent cell seeding in 40 μL of growth media: 10 μM, 3.16 μM, 1 μM, 0.316 μM, 0.1 μM, 0.0316 μM, 0.01 μM, 0.00316 μM, […], and vehicle (DMSO; Sigma-Aldrich, D2650). Cells were seeded at 1000 cells per well and incubated at 37° C. and 5% CO2. MOLM-13 cells were grown in RPM1 1640 (Gibco, #21875091) supplemented with 10% FBS (Gibco; #10091-148) and 1% Pen/Strep (Gibco; #15140-122). After 4 days of compound treatment, plates were placed at room temperature for 15 minutes. 10 μL CellTiter-Glo reagent (Promega, #G9242) was added to the cells and incubated for 10 minutes in the dark on a plate shaker at room temperature. A backseal (Perkin Elmer; #6005199) was added to the plates and luminescence was measured at 0.1 sec/well in an Envision (Perkin Elmer). Data were normalized for each plate so that the average of control wells (DMSO) was set to 0%, and the maximum observed value across the plate was set as 100%. Data fitting was performed using Graphpad Prism and combination effect was assessed using SynergyFinder.

[2] = Human liver microsomes (HLMs) intrinsic clearance assay; type: in vitro ADME; conditions: human, microsomes, 1 µM, pH 7.4
[3] = test system: MOLM-13 cells; experiment: Proliferation assay, MOLM-13 (CellTiter-Glo, 7 days); type: cell-based, human
Outline: (§1)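 Cells were seeded at line-specific low densities for linear growth, exposed to 3.16-fold serial compound dilutions at 0.1% DMSO, and incubated 7 days at 37 °C, 5% CO2. Viability was read by CellTiter-Glo 2.0 luminescence; IC50 came from one-site fits of % inhibition, normalized between DMSO-treated cells (100%) and a day-0 plate (0%).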

[4] = test system: OCI-AML3 cells; experiment: Proliferation assay, OCI-AML3 (CellTiter-Glo, 7 days); type: cell-based, human
Protocol: (§2) The anti-proliferative effect of compounds was tested in human leukaemia cell lines. The cell lines […] and MV4; 11 each harbor an MLL translocation expressing the MLL fusion proteins MLL-AF9 and MLL-AF4, respectively. Each also express the wildtype protein from the second allele. OCI-AML3 cells carrying the NPM1c gene mutation were also tested.
(§3) MOLM-13 and HEL cells were cultured in RPMI 1640 (Gibco) supplemented with 10% FBS (Gibco) and 1% Pen/Strep (Gibco). MV4; 11 cells were cultured in IMDM (Gibco) supplemented with 10% FBS (Gibco) and 1% Pen/Strep (Gibco). OCI-AML3 cells were cultured in MEMa (Gibco) supplemented with 20% FBS (Gibco) and 1% Pen/Strep (Gibco).
(§4) To assess proliferative effects, 125 MOLM-13 cells, 300 MV4; 11 cells, 75 OCI-AML3 cells, and 200 HEL cells were seeded in 40 μL media per well in 384-well ViewPlates (Perkin Elmer, 6007480). Cell seeding numbers were chosen based on growth curves to ensure linear growth throughout the experiments. Test compounds were added at 3.16-fold serial dilutions in DMSO from […] and DMSO content was normalized to 0.1%. Cells were incubated for 7 days at 37° C. and 5% CO2. A day 0 plate was seeded for each cell line and used as a standard control.
(§5) To measure cell viability, CellTiter-Glo 2.0 (Promega, G9242) luminescent growth indicator was used. 10 μL CellTiter-Glo reagent was added per well. Plates were placed on a plate shaker for 2 minutes in the dark and left to incubate off the shaker for another 8 minutes in the dark, for a total of 10 minutes. Plates were read using an EnVision plate reader (Perkin Elmer) using the Luminescence aperture and a measurement time of 0.1 second.
(§6) Data were analyzed in Genedata Screener®. IC50 values were determined by plotting % inhibition versus log compound concentration and using a one site dose response model. Raw data signals were normalized using 0.1% DMSO media only as background control, 0.1% DMSO with cells no compound as 100% viability (maximum signal), and day 0 0.1% DM with cells no compound as 0% viability (minimum signal).

[5] = target: Menin protein (Homo sapiens, UniProt O00255, DEL460-519); experiment: Menin/MLL fluorescence polarization (FP) assay; type: binding; conditions: Menin 2 nM, cRho110-Ahx-MBM1/MBM2 peptide 1 nM
Chain of Menin protein (O00255 with tags, fused parts or gaps DEL460-519): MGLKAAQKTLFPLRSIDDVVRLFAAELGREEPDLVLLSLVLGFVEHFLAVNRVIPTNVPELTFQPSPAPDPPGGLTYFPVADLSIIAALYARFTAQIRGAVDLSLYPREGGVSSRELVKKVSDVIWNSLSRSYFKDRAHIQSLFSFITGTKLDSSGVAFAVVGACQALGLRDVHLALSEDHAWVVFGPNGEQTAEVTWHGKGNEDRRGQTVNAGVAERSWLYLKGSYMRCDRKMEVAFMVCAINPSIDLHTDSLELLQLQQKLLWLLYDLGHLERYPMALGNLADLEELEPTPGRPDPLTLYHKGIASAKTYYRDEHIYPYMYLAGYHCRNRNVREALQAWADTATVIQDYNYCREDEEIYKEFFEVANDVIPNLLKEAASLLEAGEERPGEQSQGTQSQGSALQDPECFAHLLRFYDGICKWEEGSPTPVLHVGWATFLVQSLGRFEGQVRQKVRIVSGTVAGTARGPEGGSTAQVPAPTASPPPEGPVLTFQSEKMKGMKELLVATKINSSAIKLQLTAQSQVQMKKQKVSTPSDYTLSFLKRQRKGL
Protocol: Compounds were tested in a biochemical binding assay using Menin protein at 2 nM (N6his-tev-Menin_4i80, PB-20-1459) and the substrate cRho110-Ahx-MBM1/MBM2 peptide (UbiQ, UbiQ-Q20201030; cRh110-Ahx-[…]-QRVPALLLPPG-NH2) at 1 nM.
384 Low volume black plates (Corning #4514) were used. 5 μL/well compound or 3% DMSO was added at 10-fold serial dilutions in DMSO from 10 μM. 5 μL/well cRho110-Ahx-MBM1/MBM2 peptide or binding buffer (50 mM Tris pH 7.5, 50 mM NaCl, 1 mM TCEP, 0.01% BGG, 0.01% Brij-35) was added to all wells. 5 μL/well Menin protein or binding buffer (50 mM Tris pH 7.5, 50 mM NaCl, 1 mM TCEP, 0.01% BGG, 0.01% Brij-35) was added to all wells. Plates were read on an EnVision plate reader (Perkin Elmer) with excitation at 480 nm and emission at 535 nm P+S, and measured every 5 minutes for 180 minutes.
Data were analyzed in Genedata Screener®. IC50 values were determined by plotting % inhibition versus log compound concentration and using a one site dose response model. Raw data signals were normalized using 1% DMSO no Menin as 100% inhibitor control and 1% DMSO with Menin and no inhibitor as 0% inhibitor control.

[6] = test system: HEL cells; experiment: Proliferation assay, HEL control cell line (CellTiter-Glo, 7 days); type: cell-based, human
Outline: as §1

[7] = test system: MV4;11 cells; experiment: Proliferation assay, MV4;11 (CellTiter-Glo, 7 days); type: cell-based, human; conditions: read-out: MV-4-11 IC50
Protocol: as §2, §3, §4, §5, §6

| SMILES | cell viability as monotherapy (in words) [1] | HLM CLint [2] [µL/min/mg] | IC50 [3] [nM] | IC50 [4] [nM] | IC50 [5] [nM] | IC50 [6] [µM] | IC50 [7] [nM] |
| --- | --- | --- | --- | --- | --- | --- | --- |
| CC1(C)CCC(CN2CCN(c3ccc(C(=O)NS(=O)(=O)c4ccc(NCC5CCOCC5)c([N+](=O)[O-])c4)c(Oc4cnc5[nH]ccc5c4)c3)CC2)=C(c2ccc(Cl)cc2)C1 [venetoclax, reference compound] | cell viability loss was induced |  |  |  |  |  |  |
| Cc1c(C(=O)[C@@H]2CCN(C(=O)[C@H]3NC[C@@H]4C[C@@H]43)[C@@H](C)C2)c2ccncc2n1-c1ccc(F)cc1C(=O)N(CC(F)(F)F)C(C)C (single isomer, unassigned) [Example 53-4, 2-(3-((2R*,4S*)-1-((1S,2S,5R)-3-Azabicyclo[3.1.0]hexane-2-carbonyl)-2-methylpiperidine-4-carbonyl)-2-methyl-1H-pyrrolo[2,3-c]pyridin-1-yl)-5-fluoro-N-isopropyl-N-(2,2,2-trifluoroethyl)benzamide] |  | 89 | 71 | 118 | 48 | > 10 | 53 |

Reference: patent US20240335431A1, “1-H-PYRROLO[2,3-c]PYRIDINE COMPOUNDS” (Acerta Pharma B.V., priority 2023, published 2024)
